By Ki is commonly meant a dissociation constant, usually derived from enzyme kinetics or from competition with a known ligand. Low readings indicate a stronger hold on the target, high ones a looser hold on the target.

For one assay, the target named is T1, 5HT1A-receptors (Bos taurus, UniProt F6Q2H9).
T1 construct: from tissue
T1 sequence (F6Q2H9 1-422): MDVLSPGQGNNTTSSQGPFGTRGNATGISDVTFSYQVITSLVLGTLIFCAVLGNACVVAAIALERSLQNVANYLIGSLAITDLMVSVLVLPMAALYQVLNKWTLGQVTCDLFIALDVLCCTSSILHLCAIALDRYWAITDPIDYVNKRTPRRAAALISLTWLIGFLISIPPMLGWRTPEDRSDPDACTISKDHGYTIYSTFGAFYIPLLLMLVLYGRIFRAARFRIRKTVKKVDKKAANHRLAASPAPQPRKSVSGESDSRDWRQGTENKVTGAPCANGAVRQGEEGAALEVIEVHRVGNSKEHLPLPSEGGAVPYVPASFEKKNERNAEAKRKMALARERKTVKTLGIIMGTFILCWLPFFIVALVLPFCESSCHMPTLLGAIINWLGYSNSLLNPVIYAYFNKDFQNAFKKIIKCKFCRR
As to the kind of experiment: Affinity for 5HT1A-receptors (Test 2, Peroutka binding assay).

A further assay concerns the target T2, 5HT2-receptors (Rattus norvegicus, UniProt P14842).
T2 construct: from tissue
Briefly: Affinity for 5HT2-receptors (Test 1, 3H-ketanserin binding, Leysen et al.). As to conditions: 3H-ketanserin as ligand. The protocol: Test 1. Affinity for 5HT2-receptors
The binding assay was carried out essentially as described by Leysen et al., (Mol. Pharmcol. 21, 301-314, 1982) using 3 H-kezanserine as ligand.

Structures can show the parent of a compound that is named as a salt.

T2 sequence (P14842 whole entry): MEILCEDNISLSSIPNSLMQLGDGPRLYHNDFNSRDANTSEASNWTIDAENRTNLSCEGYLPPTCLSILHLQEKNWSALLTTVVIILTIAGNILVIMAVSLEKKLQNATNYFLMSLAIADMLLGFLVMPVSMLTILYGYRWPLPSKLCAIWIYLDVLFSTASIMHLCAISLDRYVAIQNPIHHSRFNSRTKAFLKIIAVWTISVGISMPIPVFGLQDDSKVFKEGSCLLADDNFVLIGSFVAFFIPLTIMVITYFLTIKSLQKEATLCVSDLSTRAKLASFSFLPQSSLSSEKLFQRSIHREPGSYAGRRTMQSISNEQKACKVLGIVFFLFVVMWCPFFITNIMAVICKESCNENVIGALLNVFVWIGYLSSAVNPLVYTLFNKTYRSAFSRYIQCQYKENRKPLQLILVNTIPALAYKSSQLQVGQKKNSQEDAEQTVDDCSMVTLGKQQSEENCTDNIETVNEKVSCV

Regarding `CCOC(=O)c1cccnc1N1CCN(CCCC(c2ccc(F)cc2)c2ccc(F)cc2)CC1` [2:1, 3-Pyridinecarboxylic acid (2-(4-(4,4-bis(4-fluorophenyl)butyl)-1-piperazinyl-)ethyl ester hydrochloride], the results for the Ki on 5HT1A-receptors and at 5HT2-receptors were 1.2 nM and 5.7 nM, respectively.

As to `COC(=O)c1cccnc1N1CCN(CCCC(c2ccc(F)cc2)c2ccc(F)cc2)CC1` [2:4, 1-[4,4 -Bis(p-fluorophenyl)butyl]-4-(3-methoxycarbonyl-2-pyridyl)-piperazine, hydrochloride], the Ki worked out at 0.7 nM on 5HT1A-receptors and 4 nM at 5HT2-receptors.

With `CC(C)CCOC(=O)c1cccnc1N1CCN(CCCC(c2ccc(F)cc2)c2ccc(F)cc2)CC1` [2:7, 1-[4,4-Bis(p-fluorophenyl)butyl]-4-(3-isoamyloxycarbonyl-2-pyridyl)-piperazine, hydrochloride], the Ki at 5HT1A-receptors came out at 14 nM; at 5HT2-receptors, 2.7 nM.

On to `O=C(OCc1ccccn1)c1cccnc1N1CCN(CCCC(c2ccc(F)cc2)c2ccc(F)cc2)CC1` [2:10, 1-[4,4-Bis(p-fluorophenyl)butyl]-4-[3-(2-pyridinylmethoxycarbonyl)-2-pyridyl]-piperazine, hydrochloride], for which the Ki on 5HT2-receptors came out at 0.6 nM.

The values above are taken from patent US5658910A, “Nicotinic acid esters” (Pharmacia AB, priority 1992, dated 1997).
